Measurements reported in patent US11414436B2, “Non-coordinating anion type activators containing cation having large alkyl groups” (ExxonMobil Chemical Patents Inc., priority 2018, dated 2022).
“And” between values parts separate entries of the source, which are not always exact repeats. Equal values may be shown once.

Legend:
[1] = Solubility studies of the activators (saturated solution in isohexane or methylcyclohexane); assay type: physicochemical; conditions: for Solubility limit in i-hexane (mM at 25° C.) / Solubility limit in i-hexane (wt % at 25° C.): isohexane; for Solubility limit in MeCy (mM at 25° C.): methylcyclohexane
Experimental: Solubility Studies of the Activators
Procedure for Solid Activators.
A saturated solution of each of the solid ammonium borate activators was prepared by stirring an excess of the activator with either isohexane or methylcyclohexane solvent for several hours at 25° C. The mixture was then filtered and a known volume of the filtrate was evaporated to dryness in a tared vial. The vial was then weighed to determine the mass of activator that was dissolved in the aliquot. The concentration of the saturated solution is presented in millimoles of activator per liter of solution (mM).
Procedure for Activators that Form Emulsions.
A saturated solution of the activator was prepared by slowly adding the solvent to a pre-weighed amount of the activator. The final volume was determined as the minimum amount of solvent required to convert the emulsion into a homogeneous solution. The concentration of the saturated solution is presented in millimoles of activator per liter of solution (mM). Alternatively, an emulsion of the activator was prepared by adding the solvent to an excess amount of activator. The resulting emulsion was separated from the undissolved solids by decanting the emulsion into a tared vial. Solvent was then added dropwise until the emulsion became homogeneous. The mass of the final solution was measured and then the solvent was evaporated to dryness to obtain the mass of the activator. The concentration of the saturated solution is presented in millimoles of activator per liter of solution (mM).

[2] = as above; assay type: physicochemical; conditions: methylcyclohexane
[3] = Propylene homopolymerization in parallel pressure reactor, MCN-1 with ammonium borate activators; conditions: propylene, MCN-1 = 20 nmol, activator = 20 nmol, isohexane, TNOAL 500 nmol
Source text: Polymerization in Parallel Pressure Reactor
Solvents, polymerization-grade toluene, and isohexane were supplied by ExxonMobil Chemical Company and purified by passing through a series of columns: two 500 cc Oxyclear cylinders in series from Labclear (Oakland, Calif.), followed by two 500 cc columns in series packed with dried 3 Å mole sieves (8-12 mesh; Aldrich Chemical Company), and two 500 cc columns in series packed with dried 5 Å mole sieves (8-12 mesh; Aldrich Chemical Company). 1-octene (C8) and 1-hexene (C6) (98%, Aldrich Chemical Company) were dried by stirring over NaK overnight followed by filtration through basic alumina (Aldrich Chemical Company, Brockman Basic 1).
Solutions of the metal complexes and activators were prepared in a drybox using toluene or methylcyclohexane. Concentrations were typically 0.2 mmol/L. Tri-n-octylaluminum (TNOAL, neat, AkzoNobel) was typically used as a scavenger. Concentration of the TNOAL solution in toluene ranged from 0.5 to 2.0 mmol/L.
Polymerizations were carried out in a parallel pressure reactor, as generally described in U.S. Pat. Nos. 6,306,658; 6,455,316; 6,489,168; WO 00/09255; and Murphy, V. et al. (2003) “A Fully Integrated High-Throughput Screening Methodology for the Discovery of New Polyolefin Catalysts: Discovery of a New Class of High Temperature Single-Site Group (IV) Copolymerization Catalysts,” J. Am. Chem. Soc., v. 125, pp. 4306-4317, each of which is fully incorporated herein by reference. […] Although the specific quantities, temperatures, solvents, reactants, reactant ratios, pressures, and other variables are frequently changed from one polymerization run to the next, the following describes a typical polymerization performed in a parallel pressure reactor.
Catalyst systems dissolved in solution were used in the polymerization examples below, unless specified otherwise.
RUN A: Propylene Homopolymerization (PP).
The reactor was prepared as described above and purged with propylene. For the examples in Table 2, the catalyst and activator solutions were prepared in toluene. […] Isohexane was then injected into each vessel at room temperature followed by a predetermined amount of propylene gas. The reactor was heated to the set temperature while stirring at 800 rpm, and the scavenger, activator and catalyst solutions were injected sequentially to each vessel. The polymerization was allowed to proceed as described previously.
A series of propylene polymerizations were performed in parallel pressure reactors (PPRs) developed by Symyx Technologies, Inc. In these polymerizations, the metallocene rac-dimethylsilyl-bis(indenyl)hafnium dimethyl (MCN-1) was used along with several different ammonium borate activators. Polymerizations were performed at 85° C. and 100° C.
Propylene homopolymerization (PP).
A series of propylene polymerizations were performed in the parallel pressure reactor similar to the procedure described above. In these studies rac-dimethylsilyl-bis(indenyl)hafnium dimethyl (MCN-1) was used along with ammonium borate activators.

[4] = RUN B: ethylene-octene polymerization in parallel pressure reactor, activator diluent toluene or methylcyclohexane; conditions: ethylene-octene copolymerization; for activity, molecular weight and co-monomer incorporation with methyl cyclohexane versus toluene as activator diluent: FIGS. 2-4; for activity: Cat 1 (MCN-1)
Experimental: RUN B: Polymerization in Parallel Pressure Reactor.
A series of ethylene-octene polymerizations were performed in the parallel pressure reactor according to the procedure described above. […] In a typical experiment an automated syringe was used to introduce into the reactor the following reagents, if utilized, in the following order: isohexane (0.35 mL), an isohexane solution of TNOAL scavenger (0.005 M, 60 μL), additional isohexane (0.35 mL), a toluene solution of the respective polymerization catalyst (150 μL, 0.4 mM, 20 nm [cat]/100 μL [toluene]), additional isohexane (0.35 mL), a toluene or methylcyclohexane solution of the respective activator (150 μL, 0.4 mM, (20 nm [act]/100 μL[ diluent])), then additional isohexane so that the total solvent volume for each run was 5 mL. Catalyst and activator were used in a 1:1 ratio. Each reaction was performed at a specified temperature range between 50 and 120° C., typically 95° C., while applying about 100 psig of ethylene (monomer) gas. Each reaction was allowed to run for about 1 hour (˜3600 seconds) or until approximately 20 psig of ethylene gas uptake was observed, at which point the reactions were quenched with air (˜300 psig). When sufficient polymer yield was attained (e.g., at least ˜10 mg), the polyethylene product was analyzed by Rapid GPC, described below.
In a typical experiment, the anilinium borate activators were combined with toluene or methylcyclohexane as diluent and introduced to the parallel, pressure reactor via syringe. By this mechanism of activator introduction, only well dissolved activators could be delivered to the reactor providing a means to discriminate between the polymerization performance of long chain soluble anilinium borates vs. conventional anilinium borates. Following addition of activator, the catalyst Cat 1 was introduced, via syringe as well-dissolved toluene solution and the polymerization was conducted per the methodology described above.

[5] = activator diluent MeCy (methylcyclohexane)

Compound	Solubility limit in i-hexane (mM at 25° C.) [1] [mM]	Solubility limit in i-hexane (wt % at 25° C.) [1] [wt %]	Solubility limit in MeCy (mM at 25° C.) [1] [mM]	Solubility limit in MeCy (wt % at 25° C.) [2] [wt %]	activity ([4]; activator diluent Toluene)	other results
CCCCCCCCCC[NH+](CCCCCCCCCC)c1ccc(CCCC)cc1.Fc1c(F)c(F)c([B-](c2c(F)c(F)c(F)c(F)c2F)(c2c(F)c(F)c(F)c(F)c2F)c2c(F)c(F)c(F)c(F)c2F)c(F)c1F [DDBAH-BF20, 4-butyl-N,N-didecylbenzenaminium-BF20]	2.0	0.32	21	3.0	–	–
CCCCCCCCCC[NH+](CCCCCCCCCC)c1ccc(CCCC)cc1.Fc1c(F)c(F)c2c(F)c([B-](c3c(F)c(F)c4c(F)c(F)c(F)c(F)c4c3F)(c3c(F)c(F)c4c(F)c(F)c(F)c(F)c4c3F)c3c(F)c(F)c4c(F)c(F)c(F)c(F)c4c3F)c(F)c(F)c2c1F [DDBAH-BF28, 4-butyl-N,N-didecylbenzenaminium-BF28]	2.2	0.47	17	3.3	–	–
CCCCCCCCCC[NH+](CCCCCCCCCC)c1ccc(C)cc1.Fc1c(F)c(F)c([B-](c2c(F)c(F)c(F)c(F)c2F)(c2c(F)c(F)c(F)c(F)c2F)c2c(F)c(F)c(F)c(F)c2F)c(F)c1F [DDTH-BF20, N,N-didecyl-4-methylanilinium-BF20]	1.5	0.22	1.7	0.21	–	–
CCCCCCCCCC[NH+](CCCCCCCCCC)c1ccc(C)cc1.Fc1c(F)c(F)c2c(F)c([B-](c3c(F)c(F)c4c(F)c(F)c(F)c(F)c4c3F)(c3c(F)c(F)c4c(F)c(F)c(F)c(F)c4c3F)c3c(F)c(F)c4c(F)c(F)c(F)c(F)c4c3F)c(F)c(F)c2c1F [DDTH-BF28, N,N-didecyl-4-methylanilinium-BF28]	1.8	0.35	3.7	0.63	–	–
CCCCCCCCCCCCCCCCCC[NH+](CCCCCCCCCCCCCCCCCC)c1c(C)cc(C)cc1C.Fc1c(F)c(F)c2c(F)c([B-](c3c(F)c(F)c4c(F)c(F)c(F)c(F)c4c3F)(c3c(F)c(F)c4c(F)c(F)c(F)c(F)c4c3F)c3c(F)c(F)c4c(F)c(F)c(F)c(F)c4c3F)c(F)c(F)c2c1F [DOdMH-BF28, 2,4,6-trimethyl-N,N-dioctadecylbenzenaminium-BF28]	7.6	0.70	>180	>42	–	–
CCCCCCCCCCCCCCCCCC[NH+](CCCCCCCCCCCCCCCCCC)c1ccccc1C(C)C.Fc1c(F)c(F)c2c(F)c([B-](c3c(F)c(F)c4c(F)c(F)c(F)c(F)c4c3F)(c3c(F)c(F)c4c(F)c(F)c(F)c(F)c4c3F)c3c(F)c(F)c4c(F)c(F)c(F)c(F)c4c3F)c(F)c(F)c2c1F [DOdPAH-BF28, 2-isopropyl-N,N-dioctadecylbenzenaminium-BF28]	2.9	1.9	> 200	>40	–	–
CCCCCCc1ccc([NH+](C)C)cc1.Fc1c(F)c(F)c([B-](c2c(F)c(F)c(F)c(F)c2F)(c2c(F)c(F)c(F)c(F)c2F)c2c(F)c(F)c(F)c(F)c2F)c(F)c1F [Hex-DMAH-BF20, 4-hexyl-N,N-dimethylanilinium-BF20]	–	–	–	–	–	activity ([3]; 85 °C, 135 psi): 150 kg/mmol/h and 163 kg/mmol/h and 192 kg/mmol/h; activity ([3]; 100 °C, 150 psi): 47 kg/mmol/h and 81 kg/mmol/h and 75 kg/mmol/h
CCCCCCCCCCCCCCCCCC[NH+](C)c1ccc(CCCC)cc1.Fc1c(F)c(F)c2c(F)c([B-](c3c(F)c(F)c4c(F)c(F)c(F)c(F)c4c3F)(c3c(F)c(F)c4c(F)c(F)c(F)c(F)c4c3F)c3c(F)c(F)c4c(F)c(F)c(F)c(F)c4c3F)c(F)c(F)c2c1F [LCSA 1]	–	–	–	–	413.4 kg/mmol/h and 510.6 kg/mmol/h and 426.4 kg/mmol/h and 452.7 kg/mmol/h	activity, molecular weight and co-monomer incorporation with methyl cyclohexane versus toluene as activator diluent ([4]; Cat 1): remain approximately the same; activity [4, 5]: 332.7 kg/mmol/h and 377.7 kg/mmol/h and 393.6 kg/mmol/h and 367.2 kg/mmol/h
CCCCCCCCCCCCCCCCCCc1ccc([NH+](C)CCCCCCCCCCCCCCCCCC)cc1.Fc1c(F)c(F)c2c(F)c([B-](c3c(F)c(F)c4c(F)c(F)c(F)c(F)c4c3F)(c3c(F)c(F)c4c(F)c(F)c(F)c(F)c4c3F)c3c(F)c(F)c4c(F)c(F)c(F)c(F)c4c3F)c(F)c(F)c2c1F [LCSA 2]	–	–	–	–	477.7 kg/mmol/h and 430.3 kg/mmol/h and 405.6 kg/mmol/h and 423.2 kg/mmol/h	activity, molecular weight and co-monomer incorporation with methyl cyclohexane versus toluene as activator diluent ([4]; Cat 1): remain approximately the same; activity [4, 5]: 451.4 kg/mmol/h and 388.5 kg/mmol/h and 412.4 kg/mmol/h and 455.5 kg/mmol/h
CCCCCCCCCCCCCCCCCCc1ccc([NH+](CCCCCCCCCCCCCCCCCC)CCCCCCCCCCCCCCCCCC)cc1.Fc1c(F)c(F)c2c(F)c([B-](c3c(F)c(F)c4c(F)c(F)c(F)c(F)c4c3F)(c3c(F)c(F)c4c(F)c(F)c(F)c(F)c4c3F)c3c(F)c(F)c4c(F)c(F)c(F)c(F)c4c3F)c(F)c(F)c2c1F [LCSA 3]	–	–	–	–	290.6 kg/mmol/h and 278.0 kg/mmol/h and 289.7 kg/mmol/h and 278.3 kg/mmol/h	activity, molecular weight and co-monomer incorporation with methyl cyclohexane versus toluene as activator diluent ([4]; Cat 1): remain approximately the same; activity [4, 5]: 280.6 kg/mmol/h and 257.6 kg/mmol/h and 334.9 kg/mmol/h and 360.9 kg/mmol/h
N,N-dimethyl anilinium tetrakis(perfluorobiphenyl) [C3, reference compound]	–	–	–	–	692.3 kg/mmol/h and 711.1 kg/mmol/h and 841.8 kg/mmol/h and 803.7 kg/mmol/h	quantity of polymer obtained with methylcyclohexane as diluent ([4]; Cat 1, activator in methylcyclohexane): insufficient for analysis
